Assay results from patent US20250027930A1, “SMALL MOLECULES FOR REPROGRAMING ANTI-TUMOR IMMUNITY OF T CELLS” (THE SCRIPPS RESEARCH INSTITUTE, priority 2021, published 2025).

Tests used:
HA-28z CAR T cells = test: HA-28z (GD2) CAR T cell expansion with sugars; conditions: 50 mM, 14 days; both CD8^+ and CD4^+ CAR T cells
[1] = system: MC38 TSA-reactive CD8+ TILs; test: Rapid expansion of TSA-reactive CD8+ TILs from MC38 tumors; assay type: cell-based, mouse
Method: Sugars were added at the beginning or during the expansion of the TILs, and kept till the end of expansion. On expansion day 9, phenotypes of the expanded T cells were assessed, and the cells were used for adoptive transfer (FIG. 6E). For adoptive transfer, 0.5 million cells (B16-OVA or MC38) were inoculated subcutaneously on each mouse on day 0, Listeria monocytogenes-OVA (LM-OVA) infection 0.5 million CFU/mice on day 1, and blood analysis was recorded on day 7.

P14 cells = test: P14 splenocyte in vitro activation, re-stimulation and expansion; assay type: cell-based, mouse; conditions: 50 mM; for Fold of proliferation, Normalized to W/O: P14 cells
OT-1 splenocytes [2] = test: ROS, NADPH/NADP+ ratio and GSH/GSSG ratio of OT-1 splenocytes; assay type: cell-based, mouse; conditions: day 7 or 8, with IL-2; vs T cells not treated with sugar
Method: (§1) Naïve splenocytes from OT-1 mice were stimulated in vitro with OVA257-264 (500 nM) and IL-2 (60 IU/mL) in the presence or absence of an added compound for 3 days at a density of 1 million/mL (100 uL/well in 96/well plate), then expanded for 4 days. On day 7, PD-1, Tim3 and TCF-1 expressions were assessed by flow cytometry by staining cells with anti-CD8a (PerCP-Cy5.5), anti-Tim3 (BV421) and anti-TCF-1 (AF488) antibodies. For adoptive transfer, 0.6M B16-OVA cells (6×10^5) were inoculated subcutaneously 3 to 5 days before transfer in C57BL/6. On the day of adoptive transfer, mice were irradiated with 5 Gy X-ray, randomized according to tumor size, and intravenously injected with 0.2-0.3M of CD8+OT-1 T cells (2×10^5) expanded under different conditions, followed by administration of 50000 IU IL-2 every 12 h for four days. In the control group, mice were injected with cell-free vehicle only. For assessment of adoptive transfer of OT-1 CD8+ T cells activated and expanded by contacting the cells with fructose, on day 9 after transfer, anti-PD-1 (100 ug/mouse) was administered to the mice that had received T cell transfer. For assessment of adoptive transfer of OT-1 CD8+ T cells activated and expanded by contacting cells with Neu5Ac, on day 14 and day 21 after transfer, anti-PD-1 (100 ug/mouse) was administered to the mice that had received T cell transfer. The tumor growth was monitored every 3 to 4 days by measuring tumor size. Percent survival was also monitored and recorded within a period of 40 days post treatment. To evaluate tumor infiltrating OT-1 T cells, 0.6M B16-OVA cells (6×10^5) were inoculated subcutaneously 3 to 5 days before transfer in C57BL/6. On the day of adoptive transfer, mice were irradiated with 5 Gy X-ray, randomized according to tumor size, and intravenously injected with 0.2-0.3M of CD8+OT-1 T cells (2×10^5) expanded under different conditions, followed by administration of 50000 IU IL-2 every 12 h for four days. Tumors were then isolated and assessed for percentage of OT-I T cells from the total CD8+ T cells and OT-1 T cell number per gram of tumor tissue. To evaluate apoptosis, Naïve OT-1 splenocytes were stimulated by OVA257-264 (500 nM) without IL-2 in the presence of absence of sugars for 5 days followed by using Annexin V Apoptosis detection kit (Biolegend). […] To evaluate other cellular characteristics, naïve OT-1 splenocytes were stimulated by OVA257-264 (500 nM) with IL-2 (60 IU/mL) in the presence or absence of sugars for 7 or 8 days. On day 7 or 8 cells were taken and analyzed by assessment of ROS, NADPH/NADP+ ratio, and GSH/GSSG ratio.

B16-OVA tumor = assay type: in vivo, mouse
Method: as §1

OT-1 splenocytes [3] = test: Apoptosis (Annexin V) and IL-2 production of OT-1 splenocytes stimulated without IL-2; assay type: cell-based, mouse; conditions: OVA257-264 500 nM without IL-2, 5 days
Method: as §1

OT-I splenocytes = test: OT-I splenocyte culture with purine/pyrimidine pathway compounds; assay type: cell-based, mouse; conditions: CD8+ T cells
Method: We therefore tested if purine and pyrimidine nucleotides have similar effects as N-Acetylneuraminic acid to help maintain less differentiated phenotypes of T cells during expansion. OT-I splenocytes were cultured with 500 nM […] peptide (OVA257-264) for three days at initial cell density of 1×10^6/mL to activate and expand the CD8+ T cell population. Different concentrations of the products or intermediates in purine or pyrimidine de novo synthesis pathways were added on day 3. The tested compounds include, e.g., guanosine, deoxyguanosine, adenosine, deoxyadenosine, inosine, xanthosine, orotidine, uridine, cytidine, deoxycytidine, thymidine, deoxythymidine, 5-Aminoimidazole-4-carboxamide ribonucleotide (AICAR), orotate, and dihydroorotate. The phenotype of expanded T cells were analyzed on day 5.

OT-1 cells = test: OT-I-Tcf7GFP splenocyte screen: proliferation and Tim3−TCF-1+ ratio; assay type: cell-based, mouse; conditions: Day7, 50 mM
TILs from B16-OVA tumor = assay type: cell-based, mouse; conditions: day 7 rapid expansion
Method: TILs from B16-OVA tumor were isolated on day10 after inoculation, and Tim-3^−TCF/GFP^+ and Tim-3^+TCF/GFP^− in tetramer positive population were collected by live cell sorting (FIG. 15A). Phenotype features of Tim-3^−TCF/GFP^+ (FIG. 15B) and Tim-3^+TCF/GFP^− (FIG. 15C) were analyzed on day 7 after rapid expansion with feeder cells (TILs/feeder cell: 1/200) in the presence or absence of sugars.
To investigate which population that sugars mainly changed on T cells, B16-OVA cancer cells (7×10^5 cells) were subcutaneously inoculated into the left or right flank of TCF7^GFP mice expressing an EGFP fluorescent reporter from the endogenous Tcf7 locus, which enable us to track the expression of TCF-1 in live cells.

## CC(=O)N[C@H]1[C@H]([C@H](O)[C@H](O)CO)OC(O)(C(=O)O)C[C@@H]1O (stereo partly drawn) [Neu5Ac, N-acetylneuraminic acid]
HA-28z CAR T cells
  CAR T cells proliferated times faster than cells expanded without sugars: 1.5-2 times
[1]
  cell surface anti-CLA (Cutaneous Lymphocyte-associated Antigen) staining: significant increase
P14 cells; Day6
  Fold of proliferation, Normalized to W/O: 2.29 fold
P14 cells; Day6, w/o 55.0
  Tim3^−TCF-1^+ ratio of CD8^+ T cells (%): 97.4%
P14 cells; Day9
  Fold of proliferation, Normalized to W/O: 1.40 fold
P14 cells; Day9, w/o 3.5
  Tim3^−TCF-1^+ ratio of CD8^+ T cells (%): 71.3%
OT-1 splenocytes [2]
  GSH/GSSG ratio: greater
  NADPH/NADP+ ratio: greater
  ROS: significantly less
B16-OVA tumor; treated OT-1 T cells used with anti-PD-1 antibody treatment, vs untreated T cells
  capabilities to control tumor growth by way of tumor volume and survival rate: significantly better
B16-OVA tumor; treated T cells transferred to B16-OVA mice
  tumor infiltrating OT-1 T cell numbers: increased
OT-1 splenocytes [3]; vs T cells not treated with sugar
  viability and apoptotic characteristics: enhanced viability and differential apoptotic characteristics
OT-1 splenocytes [3]; vs no sugar
  production of IL-2: significantly greater
OT-I splenocytes
  purine and pyrimidine biosynthesis end products and certain intermediates: upregulated
OT-1 cells; w/o 2.6
  Tim3^−TCF-1^+ ratio of CD8^+ T cells (%): 59.6%
OT-1 cells; Mus musculus, Splenocyte, 168 h, OT-1 cells, read-out: Proliferation fold, Normalized to W/O
  activity at 50000 µM: 143%
TILs from B16-OVA tumor
  reversal of sorted Tim-3^+TCF-GFP^− back to Tim-3^−TCF-GFP^+ phenotype: partially reverse
TILs from B16-OVA tumor; vs without sugars
  maintenance of progenitor exhausted features of sorted Tim-3-TCF-GFP^+ TILs: maintain more Tim-3^−TCF/GFP^+ cells
